# Results: patent publication US11273153B2, “MAPK inhibitors” (EverBrilliant Pharma Pty Ltd, priority 2014, dated 2022)
# “And” between values parts separate entries of the source, which are not always exact repeats. Identical values can stand only once. Like-named read-outs stand apart in the source and are kept apart here.
# How the values were obtained:
# [1] = molecular target: inactive non-phosphorylated p38α MAPK (Homo sapiens (Human), UniProt Q16539); assay: Fluorescence polarisation (FP) binding assay, inactive enzyme
# Method: (§1) A number of compounds were also assessed for the inhibition of p38α MAPK activity (www.kinase-screen.mrc.ac.uk) in which a radioactive (^33P-labelled ATP) filter binding assay was used to directly measure phosphate incorporation. Table 1 summarises the binding affinities of the synthesised compounds to both forms of the enzyme as well as the inhibitory activities against p38α MAPK. By way of enabling a comparison with a non-thiophene compound the biological testing was also carried out for known inhibitor RWJ67657, shown in table 1.
# (§2) FP signals were measured with a PHERAstar microplate reader (BMG Labtech) using black, low-binding half-area 96 well plates (Corning). Each binding data point was carried out in duplicate or triplicate. Data were recorded in millipolarisation (mP) units and measured at an excitation wavelength of 485 nm and an emission wavelength of 520 nm. Tris(hydroxymethyl)aminomethane (Tris) assay buffer was used in all binding experiments and consisted of 10 mM Tris, […] potassium chloride, and 3.5 mM 3-((3-cholamidopropyl)dimethylammonium)-1-propanesulfonate (Chaps) at pH 8.0.
# (§3) Test compounds were prepared from dimethylsulfoxide stocks (10 mM). […] Plates were incubated at room temperature for 1 hour and FP signals were recorded. For binding experiments to active p38α MAPK, the FP signals were recorded after 2 hours incubation at room temperature. Data is represented as mean±SEM from two to three independent experiments.
# [2] = molecular target: active phosphorylated p38α MAPK (Homo sapiens (Human), UniProt Q16539); assay: Fluorescence polarisation (FP) binding assay, active enzyme
# Method: as §1, §2, §3
# p38α MAPK = p38α MAPK (Homo sapiens (Human), UniProt Q16539); assay: Radioactive (33P-labelled ATP) filter binding assay of p38α MAPK activity; assay type: biochemical
# Method: as §1
# [3] = test system: IL-6 gene expression in monocytic (THP-1) cells; assay: LPS-induced IL-6 gene expression in THP-1 cells; assay type: cell-based; conditions: LPS-stimulated THP-1 cells
# Method: Certain of the compounds were tested in a cellular assay for suppression of TNF-α and IL-6 gene expression in monocytic (THP-1) cells and the assay results are depicted in FIGS. 2 and 3. A published method was used whereby treating THP-1 cells with LPS induces TNF-α and IL-6 gene expression.
# [4] = test system: neonatal rat cardiac myocytes (NCM); assay: Neonatal rat cardiac myocyte hypertrophy (3H-leucine incorporation); assay type: cell-based
# Method: Neonatal rat cardiac myocyte (NCM) hypertrophy was determined by ^3H-leucine incorporation following a published protocol on the above synthesised compounds using either Angiotensin II (AngII, 100 nM) or TNF-α (10 ng/mL) as the stimulus. ^3H levels were counted in scintillation fluid on a beta counter to determine levels of ^3H-leucine incorporation.
# [5] = test system: neonatal rat cardiac fibroblasts (NCF); assay: Neonatal rat cardiac fibroblast collagen synthesis (3H-proline incorporation); assay type: cell-based; conditions: AngII 100 nM stimulus
# Method: The effect of the compounds on neonatal rat cardiac fibroblasts (NCF) collagen synthesis was determined by measuring ^3H-proline incorporation following a published protocol using AngII (100 nM) as the stimulus. ^3H-proline incorporation was determined in the same way as the cardiac myocyte hypertrophy assay described above.
# [6] = test system: neonatal rat cardiac fibroblasts (NCF); assay: NCF cell viability (MTT assay); assay type: cell-based
# Method: Measurement of NCF cell viability was carried out using a published method with the 3-(4,5-dimethylthiazol-2-yl)-2,5-diphenyltetraxolium bromide (MTT) assay.
# [7] = In vitro metabolic stability, human liver microsomes; assay type: in vitro ADME; conditions: for half-life: NADPH-dependent, read-out: Apparent Degradation half-life; for microsomal CLint: read-out: In vitro CLint (μL/min/mg protein)
# Method: (§4) The metabolic stability of compounds 4.1 and 4.5 was assayed in an in vitro assay which employed liver microsomes. Liver microsomes are valuable models for the determination of hepatic clearance because they contain a number of drug metabolising enzymes, such as the CYP450 enzymes. An in vitro metabolic stability study was conducted using human, rat and mouse liver microsomes as a prediction of the in vivo metabolic clearance. […] From the results, the rates of apparent compound degradation in human, rat and mouse liver microsomes were in agreement with the moderate to high microsome-predicted extraction ratios (EH) for both compounds 4.1 and 4.5.
# [8] = In vitro metabolic stability, rat liver microsomes; assay type: in vitro ADME; conditions: for half-life: NADPH-dependent, read-out: Apparent Degradation half-life; for microsomal CLint: read-out: In vitro CLint (μL/min/mg protein)
# Method: as §4
# [9] = In vitro metabolic stability, mouse liver microsomes; assay type: in vitro ADME; conditions: for half-life: NADPH-dependent, read-out: Apparent Degradation half-life; for microsomal CLint: read-out: In vitro CLint (μL/min/mg protein)
# Method: as §4
# [10] = Acute toxicity study in rats; assay type: in vivo, male Sprague-Dawley (SD) rats; conditions: two weeks
# Method: (§5) An acute toxicity study of compound 4.5 was carried out. In this toxicity study, four male Sprague-Dawley (SD) rats received 150 mg/kg of compound 4.5 twice daily by oral gavage over a period of two weeks. The control group consisting of four male SD rats received 1% carboxymethylcellulose (CMC) in water. Blood samples were collected for analysis at 1 and 12 hours after the first dose and at the 7 and 14 day troughs. The rats were then sacrificed and organs collected for analysis. Individual body weights were measured at day −1, 2, 4, 7, 10 and 14. FIG. 7 indicates the blood results from an acute toxicity study for 4.5.
# (§6) The full blood, haemoglobin, haemocrit, red cell count, mean corpuscular haemoglobin, mean corpuscular volume, red cell distribution width, mean corpuscular haemoglobin concentration and liver function were all assessed. […] The CDCO analysed blood samples using HPLC-MS to determine the concentrations of compound 4.5 in rat plasma at different time points (Table 3).
# [11] = Plasma concentrations in the acute toxicity study (HPLC-MS); assay type: in vivo, rat; conditions: for Concentration in rat plasma: 150 mg/kg twice daily oral gavage, individual rats 1-4, rat 2 atypical and excluded
# Method: as §5, §6
# [12] = 150 mg/kg twice daily oral gavage
# active phosphorylated p38α MAPK, sequence (Q16539 whole entry): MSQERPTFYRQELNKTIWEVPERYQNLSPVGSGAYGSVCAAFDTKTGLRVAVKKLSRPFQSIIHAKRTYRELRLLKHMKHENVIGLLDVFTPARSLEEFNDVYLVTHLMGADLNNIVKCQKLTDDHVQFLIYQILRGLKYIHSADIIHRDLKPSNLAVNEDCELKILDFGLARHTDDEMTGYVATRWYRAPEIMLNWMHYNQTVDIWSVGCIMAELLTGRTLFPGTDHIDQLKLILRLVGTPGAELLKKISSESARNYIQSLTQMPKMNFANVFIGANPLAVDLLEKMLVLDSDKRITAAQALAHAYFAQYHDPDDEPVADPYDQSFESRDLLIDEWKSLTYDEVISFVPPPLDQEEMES
# inactive non-phosphorylated p38α MAPK, sequence (Q16539 whole entry): as above
# p38α MAPK, sequence (Q16539 whole entry): as above
smiles,measurement,setting,value
"OCCC#Cc1sc(-c2ccc(F)cc2)c(-c2ccncc2)c1CCCc1ccccc1 [Compound 4.1, 4-(5-(4-Fluorophenyl)-3-(3-phenylpropyl)-4-(pyridin-4-yl)thiophen-2-yl)but-3-yn-1-ol]",Ki,"[1]; Table 1, read-out: Ki (μM, mean ± SEM) inactive p38α",2.3 ± 0.2 µM
same,Ki,"[1]; Table 6, read-out: Ki ± SEM (μM) to inactive p38α",2.3 ± 0.2 µM
same,Ki,"[2]; Table 1, read-out: Ki (μM, mean ± SEM) active p38α",0.6 ± 0.1 µM
same,Ki,"[2]; Table 6, read-out: Ki ± SEM (μM) to active p38α",0.6 ± 0.1 µM
same,IC50,"p38α MAPK; Table 1, average of two experiments, read-out: IC50 (μM, mean)",0.18 µM
same,IC50,"p38α MAPK; Table 6, read-out: IC50 (mean)",0.18 µM
same,inhibition of LPS-induced IL-6 gene expression,[3],strong inhibition
same,suppression of AngII-induced NCM hypertrophy,[4]; AngII 100 nM stimulus,suppression of NCM hypertrophy
same,suppression of TNF-α-induced NCM hypertrophy,[4]; TNF-α 10 ng/mL stimulus,suppression of NCM hypertrophy
same,inhibition of AngII-stimulated NCF collagen synthesis,[5],did not suppress AngII-induced NCF collagen synthesis at 1 μM concentration
same,NCF cell viability,[6]; 10 μM concentration,no affect on NCF cell viability
same,Microsome predicted EH,[7],0.92
same,half-life,[7],8 min
same,microsomal CLint,[7],219 µL/min/mg
same,Microsome predicted EH,[8],~0.91
same,half-life,[8],~5 min
same,microsomal CLint,[8],~319 µL/min/mg
same,Microsome predicted EH,[9],~0.94
same,half-life,[9],~5 min
same,microsomal CLint,[9],~342 µL/min/mg
"OCCC#Cc1cc(-c2ccncc2)c(-c2ccc(F)cc2)s1 [Compound 4.5, 4-(5-(4-Fluorophenyl)-4-(pyridin-4-yl)thiophen-2-yl)but-3-yn-1-ol]",NCF cell viability,[6]; 25 μM concentration,no affect on NCF cell viability
same,Microsome predicted EH,[7],0.58
same,half-life,[7],71 min
same,microsomal CLint,[7],24 µL/min/mg
same,Microsome predicted EH,[8],0.78
same,half-life,[8],16 min
same,microsomal CLint,[8],110 µL/min/mg
same,Microsome predicted EH,[9],0.89
same,half-life,[9],9 min
same,microsomal CLint,[9],184 µL/min/mg
same,average body weight compared to vehicle group,[10]; [12],no difference in the average body weight compared to the vehicle group
same,"full blood, haemoglobin, haemocrit, red cell parameters and liver function, treated vs vehicle",[10]; [12],No differences were observed between treated and vehicle groups
same,liver function,[10]; [12],no changes to liverfunction
same,mass of the spleen,[10]; [12],loss in the mass of the spleen
same,"weights of the kidneys, heart and liver",[10]; [12],the same as the vehicle group
same,tolerability in rats,[10]; 300 mg/kg/day,well tolerated
same,Concentration in rat plasma,[11]; 1 hour post first dose,1357 nM and 0.9 nM and 325 nM and 327 nM
same,Concentration in rat plasma,[11]; 12 hours post first dose,8 nM and 7 nM and 147 nM and 5 nM
same,Concentration in rat plasma,[11]; 7 day trough,5 nM and 424 nM and 58 nM and 6 nM
same,Concentration in rat plasma,[11]; 14 day trough,7 nM and 105 nM and 32 nM and 14 nM
same,peak plasma levels relative to the enzyme IC50 value,"[11]; intake of 300 mg/kg/day, rat",two to nine times higher
